Tests used:
[1] = test system: OAS-Luc reporter (promoter and 5′-flanking region of p69-OAS); assay: OAS-Luc luciferase reporter in transiently transfected MCF-7 cells; format: cell-based, human; conditions: 24 h treatment
Method: (§1) In a further experiment to examine whether the inducing effects of DIM are at the transcriptional level, the effect of DIM on activities of two luciferase reporter constructs, OAS-Luc (12) and 4GAS-Luc (13) was examined. OAS-Luc contains the promoter and 5′-flanking region (−972) of p69-OAS and GAS-Luc contains four repeats of the consensus GAS element. MCF-7 cells transiently transfected with these reporter constructs were treated with IFNγ, DIM, or a combination of both for 24 h. […] IFNγ induced transcriptional activity of this reporter in a concentration dependent manner to a maximum of about 1.8 fold, which is less than the response of the endogenous gene of about 5.0 fold. In marked contrast to the maximum effects of combined treatments of the inducers on endogenous gene expression (nearly 12-fold increase compared to vehicle treated cells), the reporter gene construct responded with less than a 3-fold increase over the controls.

MCF-7 cells [2] = assay: Flow cytometry of cell cycling (G1 phase); format: cell-based, human; conditions: up to 3 days; control approximately 50% in G1
Excerpt: Flow cytometry was used to determine the effects of DIM and IFNγ on cell cycling. […] In control groups approximately 50% of the cells were in G1. Treatment with IFNγ alone caused a small progressive increase in G1 blocked cells of up to 10% above the DMSO control, after 3 days.

[3] = test system: 4GAS-Luc reporter (four repeats of the consensus GAS element); assay: 4GAS-Luc luciferase reporter in transiently transfected MCF-7 cells; format: cell-based, human; conditions: DIM 50 μM, IFNγ concentration dependent, maximum
Method: as §1
Thus, treatment with DIM (50 μM) by itself again produced a 2 to 3-fold increase in activity of this reporter. IFNγ treatments, however, produced a robust concentration dependent increase in reporter activity to approximately 40-fold induction compared to vehicle treated controls. […]

MHC-I complex = assay: Flow cytometry of cell surface MHC-I expression (FITC-conjugated HLA-ABC antibody); format: cell-based, human
Method: Induced expression of the MHC-I complex is a well-established and important down-stream target of IFNγ-mediated signal transduction. To examine further the possible synergistic effects of DIM on a significant metabolic product of IFNγ signaling, we tested the effects of co-treatment with DIM on IFNγ induced expression of MHC-I complex in MCF-7 cells.
Flow cytometry analysis of cell surface MHC-I expression was conducted using FITC-conjugated HLA-ABC antibody. In an initial control experiment, cultured MCF-7 cells were pre-treated with 30 μM DIM for 48 hours and then with or without 10 ng/mL IFNγ for another 16 hours. […] In a subsequent experiment in which cells were treated with a range of IFNγ concentrations and analyzed with the anti-MHC-I antibody, a strong signal indicative of IFNγ-induced MHC-I expression was detectable at 0.1 ng/mL and appeared to plateau at 10 ng/mL. In cells treated with vehicle control only, MHC-I expression was not detected in greater than 99% of cells.
Exposure to DIM of cells treated with 10 ng/mL of IFNγ, about 95% of which expressed MHC-I, produced a strong time dependent increase in MFV from 76.04 to 131.41. […] As expected, addition of an IFNγ blocking antibody into the medium before the treatments abrogated the inducing effects of co-treatments of IFNγ and DIM on MHC-I expression, confirming the requirement of the cytokine for the observed effects.

MCF-7 cells [4] = assay: Cell proliferation over a 4-day treatment period; format: cell-based, human
Method: Functional consequences of the synergistic effects of DIM and IFNγ on gene expression were examined at the level of proliferation rates. Cell proliferation was measured over a 4-day treatment period with treatments with DIM, IFNγ, or both substances, and compared to a DMSO control. With heat-treated serum, IFNγ alone reduced cell proliferation by as much as 70% compared to controls. DIM treatments reduced proliferation by as much as 60%. […] These effects were accompanied by morphological changes characteristic of apoptosis.

GAS element = assay: Electrophoretic gel mobility shift assay, STAT1 binding to GAS element; format: cell-based, human; conditions: DIM pretreatment for various times, IFNγ 30 min
Method: An electrophoretic gel mobility shift assay was used to verify that the phosphorylated STAT1 was effectively activated to a dimer that could bind to the GAS element. The ^32P-labeled DNA probe containing a GAS sequence was incubated with nuclear extracts from cells pretreated with DIM for various times as indicated, and with IFNγ for 30 min. […] When samples were incubated with an antibody specific to STAT1, the band was super-shifted, confirming the identity of the protein binding to the labeled GAS probe.

[5] = test system: HLA-A, HLA-B, HLA-C, β-microtubulin, TAP1 and TAP2; assay: RT-PCR of MHC-I components and transporters in MCF-7 cells; format: cell-based, human
Excerpt: RT-PCR was used to examine the expression of the four major components of human MHC-I, including HLA-A, HLA-B, HLA-C, and β-microtubulin, as well as two important associated transporters, TAP1 and TAP2. […] As expected, the expressions of these genes were increased 2-8 fold by treatment with IFNγ.

MHC-II = MHC-II expression in MCF-7 cells; format: cell-based, human
Excerpt: In an analogous further experiment, we observed no effect of DIM or IFNγ on MHC-II expression in the MCF-7 cells.

[6] = test system: DMBA-induced mammary tumors; conditions: single oral dose prior to carcinogen, rats; cited from earlier work
IFNGR1 protein = conditions: previous studies (ref 27), cited from earlier work

For “IFNγ: Type II IFN, interferon-γ or the immune interferon, a cytokine”, the “Maximum induction of OAS-Luc reporter” value [1] was “about 1.8 fold”, the “Increase in G1 blocked cells above the DMSO control” value (MCF-7 cells [2]) was “up to 10%” and the “Induction of 4GAS-Luc reporter activity compared to vehicle treated controls” value [3] was “approximately 40 fold”. For the same compound, the “Percentage of MHC-I positive cells” value (MHC-I complex; 0.1 ng/mL IFNγ, without or with 30 μM DIM pretreatment for 48 h) was 8.11%, the “MHC-I expression/cell (MFV)” value (MHC-I complex; 10 ng/mL IFNγ, without or with exposure to DIM) was 76.04 and the “Cells which expressed MHC-I” value (MHC-I complex; 10 ng/mL of IFNγ) was “about 95%”. The “IFNγ concentration at which MHC-I signal appeared to plateau” value (MHC-I complex; MCF-7 cells) was 10 ng/mL, the “IFNγ concentration at which induced MHC-I expression was detectable” value (MHC-I complex; MCF-7 cells) was 0.1 ng/mL and the “Reduction of cell proliferation compared to controls” value (MCF-7 cells [4]; 4-day treatment, heat-treated serum) was ≤ 70%. For the same compound, the “Effect on proliferation of cells grown in unheated serum” value (MCF-7 cells [4]; unheated serum) was “no significant effect”, the “Band-shift of 32P-labeled GAS probe with nuclear extracts” value (GAS element) was “produced a band-shift” and the “Expression levels of the six genes (MHC-I components, TAP1, TAP2) above vehicle/background” value [5] was 2-8 fold. The “Effect on MHC-II expression” value (MHC-II) was “no effect”.

For OCc1c[nH]c2ccccc12 [I3C, indole-3-carbinol], the “Reduction of incidence and multiplicity of DMBA-induced mammary tumors” value [6] is given as 70-80%, the “IFNGR1 receptor expression increase” value (IFNGR1 protein; 24 hours of treatment with I3C) is given as “about 3 fold” and the “Maximum level of IFNGR1 protein induction” value (IFNGR1 protein; I3C) is given as “about 7 fold”. The “Time at which maximum IFNGR1 protein induction was reached” value (IFNGR1 protein; I3C) was “about 48 hours”.
